Organism: Rattus norvegicus
Assay: DrugMatrix - Regimen: Daily Repeat
Type: toxicity, organism-based, Sprague-Dawley
Design: regimen Daily Repeat, gender Male, age 6-8 weeks
Conditions: in vivo; for ABSOLUTE BASOPHIL / ABSOLUTE EOSINOPHIL / ABSOLUTE LYMPHOCYTE / ABSOLUTE MONOCYTE / ABSOLUTE SEGMENTED NEUTROPHIL / BASOPHIL / EOSINOPHIL / ERYTHROCYTE COUNT / HEMATOCRIT / HEMOGLOBIN / LEUKOCYTE COUNT / LYMPHOCYTE / MEAN CORPUSCULAR HEMOGLOBIN / MEAN CORPUSCULAR HEMOGLOBIN CONCENTRATION / MEAN CORPUSCULAR VOLUME / MONOCYTE / NEUTROPHIL / NUCLEATED RED BLOOD CELLS / PLATELET COUNT: tissue Blood; for ALANINE AMINOTRANSFERASE / ALBUMIN / ALKALINE PHOSPHATASE / ASPARTATE AMINOTRANSFERASE / BLOOD UREA NITROGEN / CARBON DIOXIDE / CHLORIDE / CHOLESTEROL / CREATINE PHOSPHOKINASE / CREATININE / GLUCOSE / LACTATE DEHYDROGENASE / LIPASE / PHOSPHORUS / POTASSIUM / SODIUM / TOTAL BILIRUBIN / TOTAL PROTEIN / URIC ACID: tissue Plasma
[1] = po, 1402 mg/kg, 72 h, route oral GAVAGE, dose level High, time 3 day, vehicle 100 % WATER
[2] = po, 1402 mg/kg, 120 h, route oral GAVAGE, dose level High, time 5 day, vehicle 100 % WATER
[3] = iv, 50 mg/kg, 72 h, dose level Low, time 3 day, vehicle 100 % SALINE
[4] = iv, 50 mg/kg, 120 h, dose level Low, time 5 day, vehicle 100 % SALINE

C[C@H](CCC(=O)O)[C@H]1CC[C@H]2[C@@H]3[C@H](O)C[C@@H]4C[C@H](O)CC[C@]4(C)[C@H]3C[C@H](O)[C@]12C [CHOLIC ACID]
ABSOLUTE BASOPHIL [1]: 0 CELLS/uL
ABSOLUTE EOSINOPHIL [1]: 95.33 CELLS/uL
ABSOLUTE LYMPHOCYTE [1]: 13410.67 CELLS/uL
ABSOLUTE MONOCYTE [1]: 0 CELLS/uL
ABSOLUTE SEGMENTED NEUTROPHIL [1]: 960.67 CELLS/uL
BASOPHIL [1]: 0%
EOSINOPHIL [1]: 0.67%
ERYTHROCYTE COUNT [1]: 5.62 x10E6/uL
HEMATOCRIT [1]: 34.5%
HEMOGLOBIN [1]: 13.7 G/DL
LEUKOCYTE COUNT [1]: 14.47 x10E3/uL
LYMPHOCYTE [1]: 92.67%
MEAN CORPUSCULAR HEMOGLOBIN [1]: 24.47 pg
MEAN CORPUSCULAR HEMOGLOBIN CONCENTRATION [1]: 39.8 G/DL
MEAN CORPUSCULAR VOLUME [1]: 61.47 fL
MONOCYTE [1]: 0%
NEUTROPHIL [1]: 6.67%
NUCLEATED RED BLOOD CELLS [1]: 0 /100WBC
PLATELET COUNT [1]: 1053.33 x10E3/uL
ALANINE AMINOTRANSFERASE [1]: 55.33 u/L
ALBUMIN [1]: 4.17 G/DL
ALKALINE PHOSPHATASE [1]: 359.33 u/L
ASPARTATE AMINOTRANSFERASE [1]: 84.67 u/L
BLOOD UREA NITROGEN [1]: 16 mg/dL
CARBON DIOXIDE [1]: 32 mmol/L
CHLORIDE [1]: 101.67 MEQ/L
CHOLESTEROL [1]: 91.33 mg/dL
CREATINE PHOSPHOKINASE [1]: 224 u/L
CREATININE [1]: 0.19 mg/dL
GLUCOSE [1]: 152 mg/dL
LACTATE DEHYDROGENASE [1]: 124.33 u/L
LIPASE [1]: 9.67 u/L
PHOSPHORUS [1]: 12.63 mg/dL
POTASSIUM [1]: 7.15 MEQ/L
SODIUM [1]: 144.2 MEQ/L
TOTAL BILIRUBIN [1]: 0.2 mg/dL
TOTAL PROTEIN [1]: 5.77 G/DL
URIC ACID [1]: 1.93 mg/dL
ABSOLUTE BASOPHIL [2]: 0 CELLS/uL
ABSOLUTE EOSINOPHIL [2]: 0 CELLS/uL
ABSOLUTE LYMPHOCYTE [2]: 13701.33 CELLS/uL
ABSOLUTE MONOCYTE [2]: 565.67 CELLS/uL
ABSOLUTE SEGMENTED NEUTROPHIL [2]: 1233 CELLS/uL
BASOPHIL [2]: 0%
EOSINOPHIL [2]: 0%
ERYTHROCYTE COUNT [2]: 5.73 x10E6/uL
HEMATOCRIT [2]: 34.97%
HEMOGLOBIN [2]: 13.73 G/DL
LEUKOCYTE COUNT [2]: 15.5 x10E3/uL
LYMPHOCYTE [2]: 88.67%
MEAN CORPUSCULAR HEMOGLOBIN [2]: 24 pg
MEAN CORPUSCULAR HEMOGLOBIN CONCENTRATION [2]: 39.3 G/DL
MEAN CORPUSCULAR VOLUME [2]: 60.97 fL
MONOCYTE [2]: 3.67%
NEUTROPHIL [2]: 7.67%
NUCLEATED RED BLOOD CELLS [2]: 0.67 /100WBC
PLATELET COUNT [2]: 1207 x10E3/uL
ALANINE AMINOTRANSFERASE [2]: 112 u/L
ALBUMIN [2]: 4.27 G/DL
ALKALINE PHOSPHATASE [2]: 330 u/L
ASPARTATE AMINOTRANSFERASE [2]: 171 u/L
BLOOD UREA NITROGEN [2]: 16.33 mg/dL
CARBON DIOXIDE [2]: 30.33 mmol/L
CHLORIDE [2]: 101.67 MEQ/L
CHOLESTEROL [2]: 94.33 mg/dL
CREATINE PHOSPHOKINASE [2]: 383.67 u/L
CREATININE [2]: 0.27 mg/dL
GLUCOSE [2]: 120.67 mg/dL
LACTATE DEHYDROGENASE [2]: 380.33 u/L
LIPASE [2]: 12 u/L
PHOSPHORUS [2]: 12.13 mg/dL
POTASSIUM [2]: 7.47 MEQ/L
SODIUM [2]: 144.4 MEQ/L
TOTAL BILIRUBIN [2]: 0.2 mg/dL
TOTAL PROTEIN [2]: 6.23 G/DL
URIC ACID [2]: 2.1 mg/dL

CC1(C)S[C@@H]2[C@H](NC(=O)Cc3ccccc3)C(=O)N2[C@H]1C(=O)O [PENICILLIN G]
ABSOLUTE BASOPHIL [3]: 0 CELLS/uL
ABSOLUTE EOSINOPHIL [3]: 74.67 CELLS/uL
ABSOLUTE LYMPHOCYTE [3]: 13141.67 CELLS/uL
ABSOLUTE MONOCYTE [3]: 398.33 CELLS/uL
ABSOLUTE SEGMENTED NEUTROPHIL [3]: 1318.67 CELLS/uL
BASOPHIL [3]: 0%
EOSINOPHIL [3]: 0.67%
ERYTHROCYTE COUNT [3]: 5.85 x10E6/uL
HEMATOCRIT [3]: 37.47%
HEMOGLOBIN [3]: 13.8 G/DL
LEUKOCYTE COUNT [3]: 14.93 x10E3/uL
LYMPHOCYTE [3]: 87.67%
MEAN CORPUSCULAR HEMOGLOBIN [3]: 23.6 pg
MEAN CORPUSCULAR HEMOGLOBIN CONCENTRATION [3]: 36.87 G/DL
MEAN CORPUSCULAR VOLUME [3]: 64.07 fL
MONOCYTE [3]: 2.67%
NEUTROPHIL [3]: 9%
NUCLEATED RED BLOOD CELLS [3]: 0 /100WBC
PLATELET COUNT [3]: 1362 x10E3/uL
ALANINE AMINOTRANSFERASE [3]: 56.33 u/L
ALBUMIN [3]: 4.37 G/DL
ALKALINE PHOSPHATASE [3]: 354 u/L
ASPARTATE AMINOTRANSFERASE [3]: 76.67 u/L
BLOOD UREA NITROGEN [3]: 13.33 mg/dL
CARBON DIOXIDE [3]: 24.33 mmol/L
CHLORIDE [3]: 103.67 MEQ/L
CHOLESTEROL [3]: 82.67 mg/dL
CREATINE PHOSPHOKINASE [3]: 122 u/L
CREATININE [3]: 0.21 mg/dL
GLUCOSE [3]: 172 mg/dL
LACTATE DEHYDROGENASE [3]: 124 u/L
LIPASE [3]: 10 u/L
PHOSPHORUS [3]: 12.63 mg/dL
POTASSIUM [3]: 6.23 MEQ/L
SODIUM [3]: 146.33 MEQ/L
TOTAL BILIRUBIN [3]: 0.23 mg/dL
TOTAL PROTEIN [3]: 6.07 G/DL
URIC ACID [3]: 1.57 mg/dL
ABSOLUTE BASOPHIL [4]: 0 CELLS/uL
ABSOLUTE EOSINOPHIL [4]: 0 CELLS/uL
ABSOLUTE LYMPHOCYTE [4]: 11488.33 CELLS/uL
ABSOLUTE MONOCYTE [4]: 166 CELLS/uL
ABSOLUTE SEGMENTED NEUTROPHIL [4]: 512.33 CELLS/uL
BASOPHIL [4]: 0%
EOSINOPHIL [4]: 0%
ERYTHROCYTE COUNT [4]: 5.58 x10E6/uL
HEMATOCRIT [4]: 36.13%
HEMOGLOBIN [4]: 13.43 G/DL
LEUKOCYTE COUNT [4]: 12.17 x10E3/uL
LYMPHOCYTE [4]: 94.33%
MEAN CORPUSCULAR HEMOGLOBIN [4]: 24.07 pg
MEAN CORPUSCULAR HEMOGLOBIN CONCENTRATION [4]: 37.17 G/DL
MEAN CORPUSCULAR VOLUME [4]: 64.8 fL
MONOCYTE [4]: 1.33%
NEUTROPHIL [4]: 4.33%
NUCLEATED RED BLOOD CELLS [4]: 0 /100WBC
PLATELET COUNT [4]: 1442 x10E3/uL
ALANINE AMINOTRANSFERASE [4]: 49.33 u/L
ALBUMIN [4]: 4.27 G/DL
ALKALINE PHOSPHATASE [4]: 371 u/L
ASPARTATE AMINOTRANSFERASE [4]: 81.33 u/L
BLOOD UREA NITROGEN [4]: 15.33 mg/dL
CARBON DIOXIDE [4]: 21.67 mmol/L
CHLORIDE [4]: 107 MEQ/L
CHOLESTEROL [4]: 79.33 mg/dL
CREATINE PHOSPHOKINASE [4]: 245.67 u/L
CREATININE [4]: 0.42 mg/dL
GLUCOSE [4]: 151.67 mg/dL
LACTATE DEHYDROGENASE [4]: 117.67 u/L
LIPASE [4]: 11.5 u/L
PHOSPHORUS [4]: 12.33 mg/dL
POTASSIUM [4]: 6.79 MEQ/L
SODIUM [4]: 144.2 MEQ/L
TOTAL BILIRUBIN [4]: 0.23 mg/dL
TOTAL PROTEIN [4]: 6.07 G/DL
URIC ACID [4]: 2 mg/dL
